This test concerns sclerostin mRNA in MLO-Y4 cells. Description: Sclerostin mRNA in MLO-Y4 cells, qRT-PCR. The class given is cell-based, mouse. Particulars: MLO-Y4, inhibitor pre-treatment 10 minutes, irisin 16 hours. How it is done: Cells were stained with Hoechst 33342 and Eth-D1, and analyzed to determine the percentage of cell death. *: p<0.05, ***: p<0.001 vs 0.3 mM H2O2 treated condition. […] MLO-Y4 cells were seeded and incubated until 60% cell density. The cells were incubated with Freestyle293 medium for 4 hours and were treated with indicated concentrations of irisin for 16 hours. Sclerostin mRNA level was analyzed by qRT-PCR. Cyclophilin was used as a control house-keeping gene.
MLO-Y4 cells were incubated in serum free medium for 3 hours followed by treatment of indicated concentrations of irisin for indicated time (FIG. 6A), or followed by treatment of 0 or 10 nM irisin in the presence of indicated integrin inhibitors or their control peptide for 16 hours (FIG. 6B). Sclerostin mRNA level was analyzed by qPCR.
Certain materials and methods were used to generate the results described herein. For example, the data shown in FIG. 1A resulted from MLO-Y4 (an osteocyte-like cell line) cells treated with the indicated concentration of irisin and hydrogen peroxide for 4 hours. Cells were stained with Hoechst 33342 (ThermoFisher Scientific, catalog number H3570) and Eth-D1 (ThermoFisher Scientific, catalog number E1169) and analyzed to determine the percentage of cell death using ImageJ. The data shown in FIG. 2D resulted from MLO-Y4 incubated in serum free medium (FreeStyle™ 293 expression medium, ThermoFisher Scientific, catalog number 12338018) for 4 hours followed by treatment of indicated concentrations of irisin for 10 minutes. Cells were lysed to detect the indicated protein level using immunoblot analysis (Cell Signaling Technology, catalog numbers 3283S, 3285S, 8467S, 3553S, 9198S, and 9104S; Abcam, catalog number ab49900-100ul). The data shown in FIG. 3 resulted from 3T3-F442A cells incubated in serum free medium for 4 hours followed by treatment of indicated concentrations of irisin for 10 minutes. Cells were lysed by RIPA buffer to detect the indicated protein level using immunoblot analysis. The data shown in FIG. 4 were generated from 100 nM flag-tagged irisin (Enzo life sciences, catalog number ADI-908-307-3010) incubated with 5 nM of the indicated 6 his-tag integrins (R & D Systems Inc., catalog numbers 7064-AB-025, 5668-A4-050, 5438-A9-050, 6357-AB-050, and 6579-AV-025) in the presence of RGDS peptide (R & D Systems Inc., catalog number 3498/10) or its control peptide (Enzo Life Sciences, catalog Number BML-P701-0005) followed by immunoprecipitation using 6 his-tag beads (ThermoFisher Scientific, catalog number R901-01). Co-precipitated irisin was analyzed by immunoblot analysis against flag tag (Sigma Aldrich, catalog number A8592). The data shown in FIGS. 5A and 5B were generated from MLO-Y4 cells treated and analyzed as in the experiments used to generate the data shown in FIG. 2D, except that pre-treatment of 100 nM RGDS (FIG. 5A) or echistatin (R & D Systems Inc., catalog number 3202/100U) (FIG. 5B) for 10 minutes was performed before irisin treatment. The data shown in FIGS. 6A and 6B were generated from MLO-Y4 cells incubated in serum free medium for 3 hours followed by treatment of indicated time of 10 nM irisin for 16 hours. RNAs were extracted from the cells and the sclerostin mRNA level was analyzed by qPCR (FIG. 6A) or treated and analyzed as in (FIG. 6A), except that pre-treatment of 10 μM RGDS, RGDyK (Selleck, catalog number S7844), or echistatin was performed for 10 minutes before irisin treatment. […] Sclerostin mRNA level was analyzed by qPCR (FIG. 7A). […]

For `N=C(N)NCCC[C@@H]1NC(=O)[C@H](CCCCN)NC(=O)[C@@H](Cc2ccc(O)cc2)NC(=O)[C@H](CC(=O)O)NC(=O)CNC1=O` [cyclo RGDyK], the “effect of integrin inhibitor on irisin-induced sclerostin mRNA” value (“effect of integrin inhibitor” for short) is “prevented sclerostin induction”. Also, where the note is “listed as RGDyK circular peptide”, the “effect of integrin inhibitor” value is listed as “sensitive”.

As for “RGDS peptide: classical integrin competitive inhibitory peptide, commercially available form of the RGD peptide”, the “effect of integrin inhibitor” value is reported as “sensitive”. Also, where the note is “listed as RGD peptide”, the “effect of integrin inhibitor” value is listed as “prevented sclerostin induction”.
